According to ChEMBL document CHEMBL1201862, “PubChem BioAssay data set” (2004):
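The compound was tested at five concentrations on cells cultured in 96-well plates, with a 48-hour exposure period. GI50 is the concentration that inhibits growth by half.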 Calls of active or inactive are those of the source. No stated cut-off is given here; in the data, active = GI50 up to about 1.1 µM and inactive = higher.

What was measured:
Test in all cases: DTP human tumour cell line panel, 48 h
A498 = tested on: A498
SF-268 = tested on: SF-268
RXF 393 = tested on: RXF 393
K562 = tested on: K562
SK-MEL-5 = tested on: SK-MEL-5
COLO 205 = tested on: COLO 205
NCI-H522 = tested on: NCI-H522
MDA-MB-435 = tested on: MDA-MB-435
EKVX = tested on: EKVX
HOP-62 = tested on: HOP-62
NCI-H226 = tested on: NCI-H226
HCT-116 = tested on: HCT-116
T47D = tested on: T47D
HT-29 = tested on: HT-29
CAKI-1 = tested on: CAKI-1
UO-31 = tested on: UO-31
HCT-15 = tested on: HCT-15
SNB-75 = tested on: SNB-75

SMILES	GI50 (A498)	GI50 (SF-268)	GI50 (RXF 393)	GI50 (K562)	GI50 (SK-MEL-5)	GI50 (COLO 205)	GI50 (NCI-H522)	GI50 (MDA-MB-435)	GI50 (EKVX)	GI50 (HOP-62)	GI50 (NCI-H226)	GI50 (HCT-116)	GI50 (T47D)	GI50 (HT-29)	GI50 (CAKI-1)	GI50 (UO-31)	GI50 (HCT-15)	GI50 (SNB-75)
COc1cc(/C=C(\C#N)c2nc3ccccc3o2)ccc1O	16.3 µM (inactive)	19.9 µM (inactive)	39.5 µM (inactive)	35.4 µM (inactive)	12.6 µM (inactive)	16.9 µM (inactive)	13.3 µM (inactive)	16.4 µM (inactive)	21.6 µM (inactive)	21 µM (inactive)	15.4 µM (inactive)	16.5 µM (inactive)	13.3 µM (inactive)	22.3 µM (inactive)	17.3 µM (inactive)	25.5 µM (inactive)	16.4 µM	
Cc1ccc(S(=O)(=O)N2CCCN(S(=O)(=O)c3ccc(C)cc3)CC2)cc1	2.75 µM (inactive)	> 100 µM (inactive)	> 100 µM (inactive)	> 100 µM (inactive)	> 100 µM (inactive)	> 100 µM (inactive)	> 100 µM (inactive)	> 100 µM (inactive)			> 100 µM (inactive)	> 100 µM (inactive)	> 100 µM (inactive)	> 100 µM (inactive)		> 100 µM (inactive)	> 100 µM	> 100 µM (inactive)
O=C1CCC(NC(=O)c2ccccc2)C(=O)N1 (stereo unspecified)	> 100 µM (inactive)	> 100 µM (inactive)	> 100 µM (inactive)		> 100 µM (inactive)	> 100 µM (inactive)	> 100 µM (inactive)	> 100 µM (inactive)	> 100 µM (inactive)	> 100 µM (inactive)	> 100 µM (inactive)	> 100 µM (inactive)	> 100 µM (inactive)	> 100 µM (inactive)	> 100 µM (inactive)	> 100 µM (inactive)	> 100 µM	> 100 µM (inactive)
COc1ccc2cc(C(=O)NCCCNC(=O)c3ccc4c(OC)c(OC)ccc4c3)ccc2c1OC	> 100 µM (inactive)	> 100 µM (inactive)	> 100 µM (inactive)	> 100 µM (inactive)	> 100 µM (inactive)	> 100 µM (inactive)	> 100 µM (inactive)	> 100 µM (inactive)	> 100 µM (inactive)	> 100 µM (inactive)		> 100 µM (inactive)	> 100 µM (inactive)	> 100 µM (inactive)	> 100 µM (inactive)	> 100 µM (inactive)	> 100 µM	
Cc1c(-c2ccccc2)[nH]c2cc(Cl)ccc2c1=O	> 100 µM (inactive)	33.5 µM (inactive)	18.6 µM (inactive)	16.4 µM (inactive)	35.1 µM (inactive)			12 µM (inactive)	> 100 µM (inactive)	23 µM (inactive)	21.1 µM (inactive)	23.8 µM (inactive)	> 100 µM (inactive)	> 100 µM (inactive)	29.2 µM (inactive)	0.0135 µM (active)	17.2 µM	
C/C(=N\NC(=S)N(C)CCN(C)C(=S)N/N=C(\C)c1ccccn1)c1ccccn1	0.565 µM (active)	0.321 µM (active)	0.0843 µM (active)	1.55 µM (inactive)	0.431 µM (active)	0.247 µM (active)	0.731 µM (active)	> 100 µM (inactive)	1.73 µM (inactive)	1.67 µM (inactive)	0.316 µM (active)	0.281 µM (active)	1.84 µM (inactive)	0.224 µM (active)	1.78 µM (inactive)	0.791 µM (active)	0.45 µM	0.56 µM (active)
COC(O)C(=O)c1c2c(cc3c1CCC3)CCCC2 (stereo unspecified)	13.5 µM (inactive)	15.2 µM (inactive)		3.07 µM (inactive)	4.47 µM (inactive)	6.62 µM (inactive)	3.84 µM (inactive)	17.4 µM (inactive)	16.7 µM (inactive)	17.1 µM (inactive)	16.5 µM (inactive)	2.02 µM (inactive)	6.28 µM (inactive)	2.69 µM (inactive)	14.7 µM (inactive)	17.7 µM (inactive)	4.25 µM	8.17 µM (inactive)
Cn1c2ccc(C3=NCCN3)cc2c2cc(C3=NCCN3)ccc21	> 100 µM (inactive)	0.0463 µM (active)	34.3 µM (inactive)	26.4 µM (inactive)	31.3 µM (inactive)	0.724 µM (active)	0.0775 µM (active)	61.8 µM (inactive)	17 µM (inactive)	15.3 µM (inactive)	30.1 µM (inactive)	21.9 µM (inactive)	7.89 µM (inactive)	7.82 µM (inactive)	> 100 µM (inactive)	56.1 µM (inactive)	> 100 µM	78.5 µM (inactive)
COc1ccc2nc3c([N+](=O)[O-])ccc4c3c(c2c1)N=CN4CCCN(C)C	5.6 µM (inactive)	2.77 µM (inactive)		0.488 µM (active)	3.24 µM (inactive)	0.855 µM (active)	1.34 µM (inactive)	2.54 µM (inactive)	1.64 µM (inactive)	1.2 µM (inactive)	7.18 µM (inactive)	0.419 µM (active)	11.5 µM (inactive)	0.57 µM (active)	1.27 µM (inactive)	2.38 µM (inactive)	0.53 µM	2.67 µM (inactive)
COc1ccc(Nc2nc(N)c(C(=O)c3cccs3)s2)cc1	6.68 µM (inactive)	17 µM (inactive)	5.55 µM (inactive)	3.64 µM (inactive)	2.8 µM (inactive)	3.98 µM (inactive)	5.09 µM (inactive)	1.24 µM (inactive)	16.9 µM (inactive)	16.9 µM (inactive)	5.86 µM (inactive)	3.22 µM (inactive)	15.8 µM (inactive)	3.35 µM (inactive)	5 µM (inactive)	6.1 µM (inactive)	3.11 µM	
COc1cc([N+](=O)[O-])ccc1NC1=CC(=O)CCC1	> 100 µM (inactive)	> 100 µM (inactive)	> 100 µM (inactive)	> 100 µM (inactive)	> 100 µM (inactive)	> 100 µM (inactive)		> 100 µM (inactive)	> 100 µM (inactive)	> 100 µM (inactive)	> 100 µM (inactive)	> 100 µM (inactive)	> 100 µM (inactive)	> 100 µM (inactive)	49.5 µM (inactive)	> 100 µM (inactive)	> 100 µM	27.6 µM (inactive)
C=C1CC(C)(COc2ccc3ccc(=O)oc3c2)OC1=O (stereo unspecified)	7.45 µM (inactive)	10.9 µM (inactive)		0.581 µM (active)	2.34 µM (inactive)	0.982 µM (active)	0.733 µM (active)	2.12 µM (inactive)	7.53 µM (inactive)	16 µM (inactive)	11.4 µM (inactive)	1.14 µM (inactive)	3.66 µM (inactive)	1.57 µM (inactive)	2.03 µM (inactive)	15.8 µM (inactive)	2.61 µM	9.57 µM (inactive)
COc1cc2c(cc1OC)C1C(O)C(OC)C(Br)C3(Br)CCN(C2)C13 (stereo unspecified)	> 100 µM (inactive)	9.04 µM (inactive)	18.5 µM (inactive)		> 100 µM (inactive)	> 100 µM (inactive)	50.8 µM (inactive)	> 100 µM (inactive)	> 100 µM (inactive)	> 100 µM (inactive)	> 100 µM (inactive)	> 100 µM (inactive)	84.1 µM (inactive)	> 100 µM (inactive)	> 100 µM (inactive)	> 100 µM (inactive)	> 100 µM	78.9 µM (inactive)
CCOC(=O)Cn1nnc2cc(Nc3c(C)[n+]([O-])c4cc(F)c(OCC)cc4[n+]3[O-])ccc21	> 100 µM (inactive)	45.8 µM (inactive)	31.8 µM (inactive)	7.16 µM (inactive)	> 100 µM (inactive)		> 100 µM (inactive)	> 100 µM (inactive)	> 100 µM (inactive)	27.5 µM (inactive)	> 100 µM (inactive)	> 100 µM (inactive)	> 100 µM (inactive)	> 100 µM (inactive)	> 100 µM (inactive)	> 100 µM (inactive)	> 100 µM	
O=S(=O)(Cc1nc2ccccc2s1)c1nc2ccccc2s1	19.2 µM (inactive)	15.6 µM (inactive)	22.5 µM (inactive)	12.6 µM (inactive)	12.9 µM (inactive)	17.9 µM (inactive)	15.5 µM (inactive)	15.2 µM (inactive)	18.5 µM (inactive)	49.3 µM (inactive)	26.5 µM (inactive)	13.9 µM (inactive)	21.3 µM (inactive)	18.2 µM (inactive)		16.7 µM (inactive)	16.3 µM	18.3 µM (inactive)
Cc1cc(N(CCC#N)CCC#N)ccc1C(/N=N/c1ccc(Cl)cc1)=N\NC(=O)c1ccccc1	13.6 µM (inactive)	41.9 µM (inactive)	49.2 µM (inactive)	14.9 µM (inactive)	22 µM (inactive)	27.6 µM (inactive)	18.4 µM (inactive)	5.62 µM (inactive)	37.9 µM (inactive)	59.6 µM (inactive)	31.3 µM (inactive)	26.5 µM (inactive)	24.5 µM (inactive)	20.5 µM (inactive)	98.9 µM (inactive)	67.6 µM (inactive)	16 µM	49.5 µM (inactive)
O=C1CC(Sc2nc3ccc(I)cc3c(=O)n2Cc2ccccc2)C(=O)NN1 (stereo unspecified)	12.7 µM (inactive)	15.9 µM (inactive)		11.6 µM (inactive)	16.2 µM (inactive)	19.1 µM (inactive)	1.94 µM (inactive)	17.7 µM (inactive)	15.8 µM (inactive)	17.4 µM (inactive)	5.89 µM (inactive)	15.7 µM (inactive)	15.2 µM (inactive)	18.6 µM (inactive)	2.81 µM (inactive)	0.55 µM (active)	15.5 µM	11.7 µM (inactive)
